Experiment [1] has as its target T1, UDP-N-acetylmuramoylalanine--D-glutamate ligase (Escherichia coli K-12, UniProt P14900).
T1 sequence (P14900 whole entry): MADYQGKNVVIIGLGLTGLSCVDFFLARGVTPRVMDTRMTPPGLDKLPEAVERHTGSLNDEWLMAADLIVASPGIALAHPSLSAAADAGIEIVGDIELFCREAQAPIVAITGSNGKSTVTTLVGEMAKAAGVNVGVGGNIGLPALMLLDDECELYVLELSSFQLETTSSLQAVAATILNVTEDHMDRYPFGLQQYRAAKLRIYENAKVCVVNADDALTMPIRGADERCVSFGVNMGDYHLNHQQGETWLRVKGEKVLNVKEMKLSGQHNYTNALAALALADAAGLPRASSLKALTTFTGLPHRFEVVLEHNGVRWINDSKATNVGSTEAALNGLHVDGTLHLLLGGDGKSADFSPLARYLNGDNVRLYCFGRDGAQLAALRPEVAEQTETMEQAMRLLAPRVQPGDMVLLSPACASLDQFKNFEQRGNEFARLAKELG
Briefly: Binding affinity to 6x His-tagged and 15N/13C-labeled Escherichia coli MurD ligase measured at NMR signal 123 by 1H/13C-HSQC 2D NMR spectroscopy.

In experiment [2] the target is T1, UDP-N-acetylmuramoylalanine--D-glutamate ligase. Briefly: Binding affinity to 6x His-tagged and 15N/13C-labeled Escherichia coli MurD ligase measured at NMR signal 4 by 1H/13C-HSQC 2D NMR spectroscopy.
Experiment [3] shares this target. Briefly: Binding affinity to 6x His-tagged and 15N/13C-labeled Escherichia coli MurD ligase measured at NMR signal 13 by 1H/13C-HSQC 2D NMR spectroscopy.
For experiment [4] the target is unchanged. The experiment can be described thus: Binding affinity to 6x His-tagged and 15N/13C-labeled Escherichia coli MurD ligase measured at NMR signal 56 by 1H/13C-HSQC 2D NMR spectroscopy.
The target is the same in experiment [5]. Briefly: Binding affinity to 6x His-tagged and 15N/13C-labeled Escherichia coli MurD ligase measured at NMR signal 9 by 1H/13C-HSQC 2D NMR spectroscopy.
For experiment [6], the system named is Haemophilus influenzae. The experiment can be described thus: Antibacterial activity against Haemophilus influenzae ATCC 49247 by broth microdilution method. The experiment is classed as functional.
Experiment [7] deals with T1, UDP-N-acetylmuramoylalanine--D-glutamate ligase. The experiment can be described thus: Binding affinity to 6x His-tagged and 15N/13C-labeled Escherichia coli MurD ligase by 1H/13C-HSQC 2D NMR spectroscopy.
A further experiment deals with Enterococcus faecalis. Briefly: Antibacterial activity against Enterococcus faecalis ATCC 29212 by broth microdilution method. The experiment is classed as functional. (In general: Broth dilution looks for growth in wells or tubes with falling amounts of substance.)
In experiment [8] the target is T1, UDP-N-acetylmuramoylalanine--D-glutamate ligase. The experiment can be described thus: Competitive inhibition of Escherichia coli MurD ligase activity using UDP-N-acetylmuramyl-L-alanine as a substrate.
A further experiment concerns Streptococcus pneumoniae. The experiment can be described thus: Antibacterial activity against Streptococcus pneumoniae ATCC 49619 by broth microdilution method. The format is functional.
A further experiment concerns Staphylococcus aureus. Briefly: Antibacterial activity against Staphylococcus aureus ATCC 25923 by broth microdilution method. The format is functional.
Experiment [9] concerns the target T1, UDP-N-acetylmuramoylalanine--D-glutamate ligase. The experiment can be described thus: Binding affinity to 6x His-tagged and 15N/13C-labeled Escherichia coli MurD ligase measured at NMR signal 43 by 1H/13C-HSQC 2D NMR spectroscopy.
Experiment [10] deals with Escherichia coli. Briefly: Antibacterial activity against Escherichia coli ATCC 25922 by broth microdilution method. The format is functional.
Experiment [11] has as its target T1, UDP-N-acetylmuramoylalanine--D-glutamate ligase. Briefly: Binding affinity to 6x His-tagged and 15N/13C-labeled Escherichia coli MurD ligase measured at NMR signal 71 by 1H/13C-HSQC 2D NMR spectroscopy.
For another experiment, the system named is Streptococcus pyogenes. The experiment can be described thus: Antibacterial activity against Streptococcus pyogenes ATCC 19615 by broth microdilution method. The format is functional.
Experiment [12] deals with Haemophilus influenzae. Briefly: Antibacterial activity against Haemophilus influenzae Lek 93 by broth microdilution method. The format is functional.
Experiment [13] deals with Escherichia coli. The experiment can be described thus: Antibacterial activity against Escherichia coli ATCC 35218 by broth microdilution method. The experiment is classed as functional.
The target in experiment [14] is T2, UDP-N-acetylmuramoylalanine--D-glutamate ligase (Escherichia coli K-12) (UniProt P14900).
T2 sequence (whole entry): T1 sequence (P14900 whole entry)
Briefly: Binding affinity to Escherichia coli MurD ligase by saturation transfer difference NMR spectroscopy.

Experiment [15] deals with T2, UDP-N-acetylmuramoylalanine--D-glutamate ligase (Escherichia coli K-12). Briefly: Binding affinity to Escherichia coli MurD ligase by transferred NOESY NMR spectroscopy.

Converted amounts (≈) assume the structure as drawn. The source made the active and inactive calls. The rule behind the calls is not given here. A value given as a limit tells only on which side of the number the result lay.

Usually Kd stands for the constant that tells how readily two partners part at equilibrium. `CCCCOc1ccc2cc(S(=O)(=O)N[C@H](CCC(=O)O)C(=O)O)ccc2c1`: the Kd turned out to be 120 µM in [1] and 210 µM in experiment [2].

With `N#Cc1ccc(COc2ccc3cc(S(=O)(=O)N[C@H](CCC(=O)O)C(=O)O)ccc3c2)c(F)c1`, the Kd in [3] was determined as 7 µM; in [4] it was 5.5 µM; in experiment [5], 2.2 µM.

For orientation: Ki means a measure of affinity in units of concentration, obtained from inhibition or displacement. A higher Ki goes with lower affinity. With `O=C1Nc2ccc([N+](=O)[O-])cc2/C1=C1/SC(=S)N(NC(=O)c2cccnc2)C1=O`, the MIC in the experiment with Haemophilus influenzae [6] is 128 mg/L (≈ 299 µM); in the experiment with Enterococcus faecalis, 128 mg/L (≈ 299 µM); against Streptococcus pneumoniae, over 128 mg/L; against Staphylococcus aureus, over 128 mg/L; against Escherichia coli [10], over 128 mg/L; in the experiment with Streptococcus pyogenes it was over 128 mg/L. Besides, the MIC with Haemophilus influenzae [12] and in the experiment on Escherichia coli [13] was over 128 mg/L each time. For the same compound, the Kd came to 98 µM in experiment [7], 79 µM in experiment [9], 106 µM in experiment [11] and 111 µM in [2]. The compound also displayed an inhibition constant Ki in [8] of 115 µM. In addition, the result in experiment [14] and in [15] was Active.

The record behind these values is ChEMBL document CHEMBL3286285, “A novel 2-oxoindolinylidene inhibitor of bacterial MurD ligase: Enzyme kinetics, protein-inhibitor binding by NMR and a molecular dynamics study” (Eur J Med Chem, 2014).
